Results: US20210163489A1, “PYRAZOLOPYRIMIDINE DERIVATIVES AND THE COMPOSITIONS AND METHODS OF TREATMENT REGARDING THE SAME” (NysnoBio Ireland DAC, priority 2016, published 2021)

target: T1, Parkin (Homo sapiens, UniProt O60260); assay: Parkin pUB auto-ubiquitinylation assay (TR-FRET); assay type: biochemical; conditions: not given
T1 construct: Enzyme 3: Parkin-His tagged 203 μM (10.5 mg/ml)
Text: A Parkin pUB Auto-ubiquitinylation Assay is used to evaluate a compound's potency to activate Parkin's ability to Auto-ubiquitinylate itself.
The principle of this assay is that the E3 Ligase Parkin catalyzes the transfer of Ubiquitin to target proteins, but also has the ability to auto-ubiquitinylate itself. The phospho-Ubiquition (pUb) added to the assay alters the Parkin to a state where small molecule activators can enable the Parkin to auto-ubiquitinylate though the E1-E2 cascade reaction. The use of a Eu cryptate Ubiquition and anti 6His-d2 that binds to the His tagged Parkin will give a signal when the Eu cryptate Ubiquition is auto-ubiquitinylate onto the Parkin which can be monitored by TR-FRET.
Similar to the Activity-based probe assay in Example 2, screening for activating compounds can be distinguished from the controls as follows:
100% activation signal=pUb activated Parkin+40 nM control activator in DMSO. 0% activation signal=pUb activated Parkin+DMSO only. Parkin activators can be identified by an increase of the 0% activation signal TR-FRET signal.
• Assay Plate: White 384 well plate (Corning 3572) • Enzyme 1: E1 (Ubiquitin-activating enzyme/UBE1 Boston Biochem E-305) • Enzyme 2: E2 (UBcH7/Ube2L3 Boston Biochem E2-640) • Enzyme 3: Parkin-His tagged 203 μM (10.5 mg/ml) • pUb: Phospho-Ubiquitin (S65) (Boston Biochem U-102) • Eu Cryptate Reagent: Ubiquitin Eu (CisBio 61UBIKLA) • DMSO: DMSO (Sigma-34869-2.5L) • Reaction Buffer: 50 mM HEPES, 50 mM NaCl, 1 mM MgCl2, 0.005% Tween 20, 0.1% • PF-127 (Fisher Scientific 50-310-494), pH 8.5 • Detection Buffer: 50 mM HEPES, 50 mM NaCl, 800 mM KF, 5 mM EDTA, 0.005% • Tween 20, 0.1% PF-127, pH 8.5 • Detection Reagent Z: 13.4 nM Anti-6His-d2 in detection buffer • d2 Reagent: Anti-6His-d2 (CisBio 61HISDLA)
Enzyme Reaction (15 min Pre-Incubation with Parkin, pUb and Activator Only) • Parkin: 196 nM • pUb: 196 nM • DMSO: 1% DMSO • E1: 5 nM • E2: 50 nM • Ubiquitin Eu: 8.8 nM • Reaction time: 120 minutes • Temperature: 22° C. • Total volume: 10 μl reaction
Take 10 μl of Enzyme Reaction above and add 10 μl detection Reagent Z under the following conditions:
Reaction time: 60 minutes
1) Load assay plate wells with 4.9 μl 400.0 nM Parkin, 400 nM pUb in reaction buffer by use of Eppendorf 12-channel pipette. 2) Deliver 0.1 μl 100× activator candidates in DMSO by use of Echo 555 compound dispenser. Highest 100× concentration=100 μm and then twofold dilutions. Add each compound and control in duplicate wells. 3) Spin 1000 rpm, 2 minutes, at room temp. 4) Incubate plate for 15 minutes at room temp. 5) Add 5 μl 10 nM E1, 100 nM E2, 17.6 nM Ubiquitin Eu and 2 mM ATP in Reaction Buffer by use of Eppendorf 12-channel pipette. 6) Spin 1000 rpm, 2 minutes, at room temp. 7) Incubate plate for 120 minutes at room temp. 8) Add 10 μl 13.4 nM anti his d2 in detection buffer by use of Eppendorf 12-channel pipette. 9) Spin 1000 rpm, 2 minutes, at room temp. 10) Incubate plate for 120 minutes at room temp. 11) Read plates on Perkin Elmer Envision instrument with the following parameters:
LANCE dual laser protocol loaded into the Envision® software
Top Mirror: LANCE/DELFIA Duel/Bias (Bar code 446) Emission Filter: APC 665 EM (Bar code 205) 2nd Emission Filter: Europium 615 EM (Bar code 203) Read […] (channel 1) and 615 nm (channel 2) wavelengths on Envision®
Data Analysis: The Data can be read in CSV files. There are two tables in those CSV files, which are the values of 655 nm (channel 1) and 615 nm (channel 2) wavelengths respectively. The data is converted to an HTRF Ratio=(Channel 1/Channel 2)*10,000
The average of all the 0 uM controls (DMSO only)=BKGD (Background—0% activation). Subtract BKGD from each HTRF Ratio value=HTRF-BKGD. The average of all the 100 uM control activator in DMSO controls=Max (100% activation). The following equation is then used to calculate % Activation for each well/candidate as follows: % Activation=(HTRF−BKGD/Max)*100.
XLFIT5 model 205 was applied for the data analysis. […]

T1 sequence (O60260 whole entry, other chains not shown): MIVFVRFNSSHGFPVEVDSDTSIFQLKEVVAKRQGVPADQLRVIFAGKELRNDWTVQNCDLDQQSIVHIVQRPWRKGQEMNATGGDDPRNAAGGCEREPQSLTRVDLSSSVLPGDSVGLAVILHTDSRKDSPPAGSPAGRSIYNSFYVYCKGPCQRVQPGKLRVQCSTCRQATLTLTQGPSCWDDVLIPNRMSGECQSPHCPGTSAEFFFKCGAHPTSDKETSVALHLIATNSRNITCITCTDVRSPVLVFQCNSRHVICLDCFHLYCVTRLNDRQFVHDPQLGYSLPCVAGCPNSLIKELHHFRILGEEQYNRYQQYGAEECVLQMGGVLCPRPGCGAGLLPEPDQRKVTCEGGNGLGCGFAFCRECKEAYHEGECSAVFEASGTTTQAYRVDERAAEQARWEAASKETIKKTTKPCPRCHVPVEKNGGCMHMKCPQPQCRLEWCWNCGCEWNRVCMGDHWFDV

SMILES | Parkin activity in an auto-ubiquitination assay
Cc1nc2c(-c3ccccc3)c(C)nn2c(S)c1Cc1ccccc1 [Compound A, 6-benzyl-2,5-dimethyl-3-phenylpyrazolo[1,5-a]pyrimidine-7-thiol] | increases
Cc1cc(S)n2ncc(-c3ccc(F)cc3)c2n1 [Compound L, 3-(4-fluorophenyl)-5-methylpyrazolo[1,5-a]pyrimidine-7-thiol] | increases

same assay, conditions: activation of pUb activated Parkin; read-out: Auto-ubiq EC50 (μM) [Example 3]

SMILES | EC50 [µM]
Cc1cc(S)n2ncc(-c3cc[nH]c(=O)c3)c2n1 [Compound A3] | > 40
Cc1nc2c(-c3ccccc3)c(C)nn2c(S)c1Cc1ccncc1 [Compound AA, 2,5-dimethyl-3-phenyl-6-(4-pyridylmethyl)pyrazolo[1,5-a]pyrimidine-7-thiol] | > 40
Cc1nc2c(-c3ccccc3)c(C)nn2c(S)c1Cc1ccccn1 [Compound BB, 2,5-dimethyl-3-phenyl-6-(2-pyridylmethyl)pyrazolo[1,5-a]pyrimidine-7-thiol] | 8.8
CCCc1cc(S)n2nc(C)c(-c3ccccc3)c2n1 [Compound B] | > 40
Cc1nc2c(-c3ccccc3)cnn2c(S)c1Cc1ccccc1 [Compound CC, 6-benzyl-5-methyl-3-phenyl-pyrazolo[1,5-a]pyrimidin-7-thiol] | > 40
Cc1cc(S)n2ncc(-c3ccccc3)c2n1 [Compound C] | > 40
Cc1nn2c(S)c(Cc3ccccc3)cnc2c1-c1ccccc1 [Compound DD, 6-benzyl-2-methyl-3-phenyl-pyrazolo[1,5-a]pyrimidin-7-thiol] | > 40
COc1ccccc1-c1c(C)nn2c(S)cc(C)nc12 [Compound D] | 11.7
Cc1cc(C)c2c(n1)nn1c(S)cc(C)nc21 [Compound E] | 10.1
Cc1nc2c(C#N)c(C)nn2c(O)c1Cc1ccccc1 [Compound GG, 6-benzyl-7-hydroxy-2,5-dimethyl-pyrazolo-[1,5-a]pyrimidine-3-carbonitrile] | > 40
CC(C)(C)c1cc(O)n2ncc(-c3ccc(Cl)cc3)c2n1 [Compound G] | > 40
CCc1nn2c(S)cc(C)nc2c1-c1ccc(F)cc1 [Compound I] | 6.4
Cc1nn2c(S)c3c(nc2c1-c1ccccc1)CCCC3 [Compound K] | > 40
Cc1cc(S)n2ncc(-c3ccc(F)cc3)c2n1 [Compound L, 3-(4-fluorophenyl)-5-methylpyrazolo[1,5-a]pyrimidine-7-thiol] | 27.1
Cc1cc2nc(C)c(Cc3ccc(Cl)cc3)c(O)n2n1 [Compound P, 6-[(4-chlorophenyl)methyl]-2,5-dimethyl-pyrazolo[1,5-a]pyrimidin-7-ol] | 20.1
Cc1cc2nc(C)c(Cc3ccc(Cl)cc3)c(S)n2n1 [Compound R, 6-[(4-chlorophenyl)methyl]-2,5-dimethyl-pyrazolo[1,5-a]pyrimidine-7-thiol] | > 40
Cc1nc2c(-c3ccccc3)cnn2c(O)c1Cc1ccccc1 [Compound U, 6-benzyl-5-methyl-3-phenyl-pyrazolo[1,5-a]pyrimidin-7-ol] | 14.7
Cc1nn2c(O)c(Cc3ccccc3)cnc2c1-c1ccccc1 [Compound V, 6-benzyl-2-methyl-3-phenyl-pyrazolo[1,5-a]pyrimidin-7-ol] | > 40
Oc1c(Cc2ccccc2)cnc2c(-c3ccccc3)cnn12 [Compound W, 6-benzyl-3-phenyl-pyrazolo[1,5-a]pyrimidin-7-ol] | > 40
Cc1nc2c(-c3ccccc3)c(C)nn2c(O)c1Cc1ccncc1 [Compound X, 2,5-dimethyl-3-phenyl-6-(4-pyridylmethyl)pyrazolo[1,5-a]pyrimidin-7-ol] | > 40

SMILES | EC50 [µM]
Cc1nc2c(-c3ccccc3)c(C)nn2c(O)c1Cc1ccccn1 [Compound Y, 2,5-dimethyl-3-phenyl-6-(2-pyridylmethyl)pyrazolo[1,5-a]pyrimidin-7-ol] | > 40
Sc1c(Cc2ccccc2)cnc2c(-c3ccccc3)cnn12 [Compound Z, 6-benzyl-3-phenyl-pyrazolo[1,5-a]pyrimidin-7-thiol] | > 40
Cc1nc2c(C(=O)N(C)C)c(C)nn2c(O)c1Cc1ccccc1 [EE] | > 40
Cc1nc2c(-c3ccccn3)c(C)nn2c(O)c1Cc1ccccc1 [FF] | > 40
Cc1nn2c(O)cc(C(C)(C)C)nc2c1-c1ccc(Cl)cc1 [F] | > 40
Cc1nc2c(-c3ccccn3)c(C)nn2c(S)c1Cc1ccccc1 [HH] | > 40
Cc1nn2c(S)cc(C(C)C)nc2c1-c1ccccc1 [H] | > 40
Cc1nc2c(C(=O)N(C)C)c(C)nn2c(S)c1Cc1ccccc1 [II] | > 40
Cc1nc2c(C(F)(F)F)c(C)nn2c(O)c1Cc1ccccc1 [JJ] | > 40
CC(C)(C)c1cc(O)n2ncc(-c3ccccc3)c2n1 [J] | 13.4
Cc1nc2c(C(F)(F)F)c(C)nn2c(S)c1Cc1ccccc1 [LL] | 16.5
Cc1nc2c(-c3ccncc3)c(C)nn2c(S)c1Cc1ccccc1 [MM] | > 40
Cc1cc(O)n2nc(C)c(-c3ccc(Cl)cc3)c2n1 [M] | > 40
Cc1cc(C)c2c(n1)nn1c(O)c(Cc3ccccc3)c(C)nc21 [NN] | > 40
Cc1cc(S)n2nc(C)c(-c3ccc(Cl)cc3)c2n1 [N] | > 40
Cc1nc2c(C#N)c(C)nn2c(S)c1Cc1ccccc1 [OO] | > 40
Cc1cc(S)n2nc(C)c(-c3ccccc3)c2n1 [O] | > 40
Cc1cc(O)n2ncc(-c3ccc(F)cc3)c2n1 [PP] | > 40
Cc1nc2c(-c3ccccc3)c(C)nn2cc1Cc1ccccc1 [QQ] | > 40
Cc1cc2nc(C)c(Cc3ccccc3)c(O)n2n1 [Q] | > 40

Other lines, results leading:

EC50 [µM] | SMILES
> 40 | COc1ccc(Cn2ccc(-c3cnn4c(S)cc(C)nc34)cc2=O)cc1 [Compound B3]
> 40 | Cc1nn2c(S)c3c(nc2c1-c1ccccc1)CN(C)CC3 [Compound C3]
21 | Cc1nc2c(-c3cccnc3)c(C)nn2c(S)c1Cc1ccccc1 [Compound D3]
29 | Cc1nn2c(S)c(CCc3ccccc3)cnc2c1-c1ccccc1 [Compound E3]
32 | Cc1cc(S)c2ncc(-c3ccc(F)cc3)n2n1 [Compound F3]
> 40 | Cc1nn2c(S)c(CC(C)C)cnc2c1-c1ccccc1 [Compound G3]
> 40 | Cc1ccc(-c2cnn3c(O)cc(C)nc23)cc1 [Compound H3]
> 40 | Cc1nn2c(O)c(CC(C)C)cnc2c1-c1ccccc1 [Compound I3]
> 40 | COc1ccc(-c2cnn3c(O)cc(C)nc23)cc1 [Compound J3]
> 40 | Cc1nn2c(O)c3c(nc2c1-c1ccccc1)CCN(C)C3 [Compound K3]
> 40 | Cc1nc2c(-c3cccnc3)c(C)nn2c(O)c1Cc1ccccc1 [Compound L3]
> 40 | Cc1cc(O)n2ncc(-c3cccc(N(C)C)c3)c2n1 [Compound M3]
> 40 | Cc1nc2c(C3CCN(C)CC3)c(C)nn2c(S)c1Cc1ccccc1 [Compound N3]
> 40 | Cc1nc2c(C3CCN(C)CC3)c(C)nn2c(O)c1Cc1ccccc1 [Compound O3]
> 40 | Cc1ccc(-c2cnn3c(O)c4c(nc23)CN(C)CC4)cc1 [Compound P3]
> 40 | Cc1ccc(-c2cnn3c(S)c4c(nc23)CN(C)CC4)cc1 [Compound S3]
